{"source": "patent US20220062299A1", "about": "“USE OF GLUCOCORTICOID STEROIDS IN PREVENTING AND TREATING CONDITIONS OF MUSCLE WASTING, AGING AND METABOLIC DISORDER” (NORTHWESTERN UNIVERSITY, priority 2018, published 2022)", "test_system": "mdx mice", "assay": "Dosing of metabolic and endocrine biomarkers in serum and tissues, mdx mice, 4-week daily or weekly prednisone", "assay_type": "in vivo", "settings": "4-week treatment, mean ± s.e.m", "description": "Animal handling and steroid regimens. Mice were housed in a pathogen-free dedicated vivarium in accordance with Institutional Animal Care and Use Committee (IACUC) guidelines. Euthanasia was performed through carbon dioxide inhalation followed by cervical dislocation and heart removal. All methods using living animals in this study were performed in ethical accordance with the American Veterinary Medical Association (AVMA) and under protocols fully approved by both the Institutional Animal Care and Use Committee (IACUC) at Northwestern University Feinberg School of Medicine (protocol number ISO00000761). Consistent with the ethical approvals, all efforts were made to minimize suffering. Mice were fed ad libitum with Mouse Breeder Sterilizable Diet (#7904; Harlan Teklad, Indianapolis, Ind.) and maintained on a 12-hour light/dark cycle. mdx mice from the DBA/2J background were obtained from the Jackson Laboratory (Bar Harbor, Me.; stock #013141) and interbred. Male mice were used for reported experiments. Age at start was approximately 6 months for short-term experiments, approximately 6 weeks for long-term experiments. Dysferlin-null (Dysf-null) mice from the 129T2/SvEmsJ background were previously characterized (Demonbreun et al., 2011; Demonbreun et al., 2014). Age at start was approximately 9 months for long-term experiments. For experiments with Dysf-null and wildtype mice, both females and males (approximately 1:1 ratio) were randomized in treatment groups. […] Dosing was based on weekly weight measurements (1 mg/kg body weight, (Sali et al., 2012)) in 100 μl total PBS volume per dose. […] On injection days, stock solutions stored at −20° C. were diluted into sterile Eppendorf tubes containing sterile phosphate buffered saline (PBS) (#14190; Thermo Fisher, Waltham, Mass.). Puromycin (cat #A1113803, Thermo Scientific, Waltham, Mass.) was administered i.p. as 0.040 μmol/body g, and tissues were snap-frozen 30 minutes after injection. Sterile BD Micro-Fine IV Insulin Syringes (#14-829-1A; Fisher Scientific, Waltham, Mass.) were used to inject the intraperitoneal cavity of non-sedated animals. All animal analyses both during treatment and at endpoint were conducted blinded to treatment groups.\nDosing of metabolic and endocrine biomarkers. Glycogen was quantitated using the Glycogen Assay Kit (#ab65620; Abcam, Cambridge, Mass.) from approximately 25 mg frozen-pulverized whole tissue, following manufacturer's instructions and internal standards for calculating μg/mg values. For measurement of whole-tissue ATP/NAD^+ levels, approximately 25 mg frozen-pulverized tissue was extracted in 10% perchloric acid and neutralized in 0.75 M K2CO3, as previously described (Ramsey et al., 2009). NAD+ and ATP were measured by high-pressure liquid chromatography (HPLC) with Shimadzu LC-20A pump (Shimadzu Scientific Instr Inc, Addison, Ill.) and UV-VIS detector, using a Supelco LC-18-T column (15 cm×[…]; #58970-U; Millipore-Sigma, St Louis, Mo.). […] ATP and NAD^+ eluted as sharp peaks at 3 and 14 minutes, respectively, and were normalized to tissue weight of frozen liver tissue for calculating pmol/mg values. Corticosterone was measured in mouse serum and cortisol was measured in human serum using dedicated ELISA kits (#ADI-900-097, Enzo Life Science, Farmingdale, N.Y.; #K7430-100, BioVision, Milpitas, Calif.) according to manufacturer's instructions and internal standards to calculate ng/ml values. Insulin levels were quantitated in mouse and human serum with species-specific ELISA kits (#10-1247-01 (mouse-specific); #10-1113-01 (human-specific); Mercodia, Uppsala, Sweden), following manufacturer's instructions and internal standards to calculate ng/ml values. Free fatty acids were quantitated using Enzychrom Free Fatty Acid Assay kit (#EFFA-100; BioAssay Systems, Hayward, Calif.), following kit's instructions and standards to calculate μM (serum) and nmol/mg (tissue) values. […]"}
{"smiles": "C[C@]12C=CC(=O)C=C1CC[C@@H]1[C@@H]2C(=O)C[C@@]2(C)[C@H]1CC[C@]2(O)C(=O)CO", "note": "[prednisone, Prednisone]", "values": [{"measurement": "serum insulin", "setting": "daily prednisone 1 mg/kg i.p.", "result": "3.09 ± 0.14", "unit": "ng/mL"}, {"measurement": "serum BCAA", "setting": "daily prednisone", "result": "657 ± 24.2", "unit": "µM"}, {"measurement": "serum corticosterone", "setting": "daily prednisone", "result": "127 ± 5.34", "unit": "ng/mL"}, {"measurement": "serum free fatty acids", "setting": "daily prednisone", "result": "546 ± 13.5", "unit": "µM"}, {"measurement": "serum β-hydroxybutyrate", "setting": "daily prednisone", "result": "476 ± 4.81", "unit": "µM"}, {"measurement": "tissue BCAA, diaphragm", "setting": "daily prednisone", "result": "64 ± 3.09", "unit": "nmol/mg"}, {"measurement": "tissue BCAA, heart", "setting": "daily prednisone", "result": "2.38 ± 0.09", "unit": "nmol/mg"}, {"measurement": "tissue BCAA, omental fat", "setting": "daily prednisone", "result": "28.2 ± 0.99", "unit": "nmol/mg"}, {"measurement": "tissue BCAA, quadriceps", "setting": "daily prednisone", "result": "118 ± 2.74", "unit": "nmol/mg"}, {"measurement": "tissue free fatty acids, diaphragm", "setting": "daily prednisone", "result": "2.07 ± 0.09", "unit": "nmol/mg"}, {"measurement": "tissue free fatty acids, heart", "setting": "daily prednisone", "result": "0.86 ± 0.03", "unit": "nmol/mg"}, {"measurement": "tissue free fatty acids, omental fat", "setting": "daily prednisone", "result": "6.01 ± 0.3", "unit": "nmol/mg"}, {"measurement": "tissue free fatty acids, quadriceps", "setting": "daily prednisone", "result": "4.11 ± 0.11", "unit": "nmol/mg"}, {"measurement": "tissue β-hydroxybutyrate, diaphragm", "setting": "daily prednisone", "result": "28.4 ± 0.93", "unit": "nmol/mg"}, {"measurement": "tissue β-hydroxybutyrate, heart", "setting": "daily prednisone", "result": "24.6 ± 0.88", "unit": "nmol/mg"}, {"measurement": "tissue β-hydroxybutyrate, omental fat", "setting": "daily prednisone", "result": "58.8 ± 2.29", "unit": "nmol/mg"}, {"measurement": "tissue β-hydroxybutyrate, quadriceps", "setting": "daily prednisone", "result": "31.8 ± 0.48", "unit": "nmol/mg"}, {"measurement": "serum insulin", "setting": "weekly prednisone 1 mg/kg i.p.", "result": "1.73 ± 0.07", "unit": "ng/mL"}, {"measurement": "serum BCAA", "setting": "weekly prednisone", "result": "457 ± 14.1", "unit": "µM"}, {"measurement": "serum corticosterone", "setting": "weekly prednisone", "result": "194 ± 5.05", "unit": "ng/mL"}, {"measurement": "serum free fatty acids", "setting": "weekly prednisone", "result": "386 ± 17.3", "unit": "µM"}, {"measurement": "serum β-hydroxybutyrate", "setting": "weekly prednisone", "result": "425 ± 4.92", "unit": "µM"}, {"measurement": "tissue BCAA, diaphragm", "setting": "weekly prednisone", "result": "43.8 ± 0.93", "unit": "nmol/mg"}, {"measurement": "tissue BCAA, heart", "setting": "weekly prednisone", "result": "1.65 ± 0.07", "unit": "nmol/mg"}, {"measurement": "tissue BCAA, omental fat", "setting": "weekly prednisone", "result": "18.1 ± 0.94", "unit": "nmol/mg"}, {"measurement": "tissue BCAA, quadriceps", "setting": "weekly prednisone", "result": "89.6 ± 3.06", "unit": "nmol/mg"}, {"measurement": "tissue free fatty acids, diaphragm", "setting": "weekly prednisone", "result": "1.11 ± 0.07", "unit": "nmol/mg"}, {"measurement": "tissue free fatty acids, heart", "setting": "weekly prednisone", "result": "0.44 ± 0.02", "unit": "nmol/mg"}, {"measurement": "tissue free fatty acids, omental fat", "setting": "weekly prednisone", "result": "4.35 ± 0.07", "unit": "nmol/mg"}, {"measurement": "tissue free fatty acids, quadriceps", "setting": "weekly prednisone", "result": "1.25 ± 0.07", "unit": "nmol/mg"}, {"measurement": "tissue β-hydroxybutyrate, diaphragm", "setting": "weekly prednisone", "result": "17.1 ± 0.77", "unit": "nmol/mg"}, {"measurement": "tissue β-hydroxybutyrate, heart", "setting": "weekly prednisone", "result": "16.5 ± 0.56", "unit": "nmol/mg"}, {"measurement": "tissue β-hydroxybutyrate, omental fat", "setting": "weekly prednisone", "result": "19 ± 0.39", "unit": "nmol/mg"}, {"measurement": "tissue β-hydroxybutyrate, quadriceps", "setting": "weekly prednisone", "result": "16.4 ± 1.48", "unit": "nmol/mg"}]}
